We go through twelve compounds from ChEMBL document CHEMBL4834462, “Naphtho-γ-pyrone Dimers from an Endozoic Aspergillus niger and the Effects of Coisolated Monomers in Combination with Cisplatin on a Cisplatin-Resistant A549 Cell Line” (J Nat Prod, 2021).

The term IC50 denotes the concentration at which inhibition is half-maximal.

Calls of active or inactive are those of the source. The calls are words filed in the database; no cut-off is given here.

Test [1] has as its system A549. Kind of test: Anticancer activity against cisplatin-resistant human A549 cells assessed as reduction in cell viability measured after 48 hrs in presence of cisplatin by MTT assay. The settings on record: A549, 48 h. The class given is functional, cell-based. In general terms: Formazan colour is commonly taken as a measure of viable cells.
For test [2], the system named is A549. Kind of test: Synergistic antiproliferative activity against cisplatin-resistant human A549 cells assessed as combination index at 10 uM incubated for 48 hrs in presence of 1.5 uM cisplatin by MTT assay. In kind it is functional.
In test [3] the test system is A549. Description: Synergistic antiproliferative activity against cisplatin-resistant human A549 cells assessed as combination index at 10 uM incubated for 48 hrs in presence of 3 uM cisplatin by MTT assay. The class given is functional.
Test [4] concerns A549. Kind of test: Synergistic antiproliferative activity against cisplatin-resistant human A549 cells assessed as combination index at 10 uM incubated for 48 hrs in presence of 4.5 uM cisplatin by MTT assay. In kind it is functional.
The test system of test [5] is A549. Kind of test: Synergistic antiproliferative activity against cisplatin-resistant human A549 cells assessed as combination index at 15 uM incubated for 48 hrs in presence of 1.5 uM cisplatin by MTT assay. In kind it is functional.
The test system of test [6] is A549. Description: Synergistic antiproliferative activity against cisplatin-resistant human A549 cells assessed as combination index at 15 uM incubated for 48 hrs in presence of 3 uM cisplatin by MTT assay. The class given is functional.
Test [7] deals with A549. Kind of test: Synergistic antiproliferative activity against cisplatin-resistant human A549 cells assessed as combination index at 15 uM incubated for 48 hrs in presence of 4.5 uM cisplatin by MTT assay. In kind it is functional.
Test [8] deals with A549. Description: Synergistic antiproliferative activity against cisplatin-resistant human A549 cells assessed as combination index at 20 uM incubated for 48 hrs in presence of 1.5 uM cisplatin by MTT assay. In kind it is functional.
Test [9] relates to A549. Description: Synergistic antiproliferative activity against cisplatin-resistant human A549 cells assessed as combination index at 20 uM incubated for 48 hrs in presence of 3 uM cisplatin by MTT assay. The class given is functional.
For test [10], the system named is A549. Kind of test: Synergistic antiproliferative activity against cisplatin-resistant human A549 cells assessed as combination index at 20 uM incubated for 48 hrs in presence of 4.5 uM cisplatin by MTT assay. In kind it is functional.
Test [11] deals with A549. Kind of test: Inhibition of redox balance in cisplatin-resistant human A549 cells assessed as reduction in ratio of GSH/GSSG measured after 24 hrs. As to conditions: dose 10-20 µM. In kind it is functional, cell-based.
In test [12] the test system is A549. Kind of test: Induction of intracellular ROS generation in cisplatin-resistant human A549 cells measured after 24 hrs by DCFH-DA staining based laser scanning confocal microscopy. The class given is functional, cell-based. The settings on record: dose 10-20 µM.
In test [13] the test system is A549. Kind of test: Induction of apoptosis in cisplatin-resistant human A549 cells assessed as viable cells at 10 uM incubated for 24 hrs by AnnexinV-FITC/PI staining based flow cytometry (reference value: 86.5%). In kind it is functional. As to conditions: read-out: Activity. For orientation: In flow cytometry, cells or beads pass a laser one at a time.
Test [14] deals with A549. Kind of test: Induction of apoptosis in cisplatin-resistant human A549 cells assessed as early apoptotic cells at 10 uM incubated for 24 hrs by AnnexinV-FITC/PI staining based flow cytometry (reference value: 2.17%). The class given is functional.
The test system of test [15] is A549. Kind of test: Induction of apoptosis in cisplatin-resistant human A549 cells assessed as late apoptotic cells at 10 uM incubated for 24 hrs by AnnexinV-FITC/PI staining based flow cytometry (reference value: 10.8%). The class given is functional.
Test [16] deals with A549. Kind of test: Induction of apoptosis in cisplatin-resistant human A549 cells assessed as necrotic cells at 10 uM incubated for 24 hrs by AnnexinV-FITC/PI staining based flow cytometry (reference value: 0.53%). In kind it is functional.
Test [17] deals with A549. Description: Induction of apoptosis in cisplatin-resistant human A549 cells assessed as viable cells at 20 uM incubated for 24 hrs by AnnexinV-FITC/PI staining based flow cytometry (reference value: 86.5%). The class given is functional. As to conditions: read-out: Activity.
Test [18] deals with A549. Description: Induction of apoptosis in cisplatin-resistant human A549 cells assessed as early apoptotic cells at 20 uM incubated for 24 hrs by AnnexinV-FITC/PI staining based flow cytometry (reference value: 2.17%). In kind it is functional.
Test [19] concerns A549. Kind of test: Induction of apoptosis in cisplatin-resistant human A549 cells assessed as late apoptotic cells at 20 uM incubated for 24 hrs by AnnexinV-FITC/PI staining based flow cytometry (reference value: 10.8%). In kind it is functional.
Test [20] deals with A549. Kind of test: Induction of apoptosis in cisplatin-resistant human A549 cells assessed as necrotic cells at 20 uM incubated for 24 hrs by AnnexinV-FITC/PI staining based flow cytometry (reference value: 0.53%). In kind it is functional.
The subject of test [21] is A549. Description: Downregulation of HO-1 protein expression in cisplatin-resistant human A549 cells at 15 uM incubated for 48 hrs in presence of cisplatin by western blot analysis. The class given is functional, cell-based. For orientation: A western blot detects proteins with antibodies after separation by electrophoresis.
The test system of test [22] is A549. Kind of test: Downregulation of NQO-1 protein expression in cisplatin-resistant human A549 cells at 15 uM incubated for 48 hrs in presence of cisplatin by western blot analysis. The class given is functional, cell-based.
Test [23] relates to A549. Description: Downregulation of AKT protein expression in cisplatin-resistant human A549 cells at 15 uM incubated for 48 hrs in presence of cisplatin by western blot analysis. The class given is functional, cell-based.
Test [24] relates to A549. Kind of test: Downregulation of Nrf2 protein expression in cisplatin-resistant human A549 cells at 15 uM incubated for 48 hrs in presence of cisplatin by western blot analysis. In kind it is functional, cell-based.
The subject of test [25] is A549. Description: Downregulation of HO-1 protein expression in cisplatin-resistant human A549 cells at 15 uM incubated for 48 hrs by western blot analysis. In kind it is functional, cell-based.

In the case of `COc1cc(OC)c2c(O)c3c(=O)cc(C)oc3c(-c3c(O)cc4cc5oc(C)cc(=O)c5c(O)c4c3OC)c2c1`, the IC50 in the test on A549 [1] was above 20 µM.
Take `COc1cc(O)cc2cc3oc(C)cc(=O)c3c(O)c12`: the IC50 with A549 [1] was above 20 µM.
`COc1cc(OC)c2c(O)c3c(c(-c4c(OC)cc5cc(O)c6c(=O)cc(C)oc6c5c4OC)c2c1)O[C@](C)(O)CC3=O`: in the test with A549 [1], the IC50 is above 20 µM.
With `COc1cc(OC)c2c(O)c3c(=O)cc(C)oc3c(-c3c(O)cc4cc(O)c5c(=O)cc(C)oc5c4c3OC)c2c1` [ASPERPYRONE A], the IC50 in the test with A549 [1] was above 20 µM.
In the case of `COc1cc(O)cc2cc(O)c3c(=O)cc(C)oc3c12`, in the test on A549 [1], the IC50 was above 20 µM. For the same compound, the CI is listed as 1.95 in the test with A549 [2]; 0.95 with A549 [3]; 0.83 with A549 [4]; 0.75 in the test on A549 [5]; 0.72 in the test with A549 [6]; 0.79 in the test with A549 [7]. The CI with A549 [8] is 0.76; with A549 [9] it was 0.76; in the test with A549 [10], 0.81. For the same compound, the inhibition entry in the test on A549 [11] is “Dose-Dependent Effect”. For the same compound, the Activity entry with A549 [12] is “Dose-Dependent Effect”; with A549 [14], 2.87%; in the test with A549 [15], 23.6%; with A549 [16], 0.9%; with A549 [18], 4.05%; in the test on A549 [19] it was 41.3%. In addition, the Activity with A549 [20] turned out to be 1.34%. For the same compound, the viability at 10 µM in the test with A549 [13] was 72.6%. Further, the viability at 20 µM in the test on A549 [17] was found to be 53.3%. Further, the inhibition result with A549 [21], in the test with A549 [22], with A549 [23], with A549 [24] and in the test with A549 [25] was “Active” in each case.
In the case of `COc1cc(OC)c2c(c1)c(-c1c(OC)cc3cc4oc(C)cc(=O)c4c(O)c3c1OC)c(O)c1c(=O)cc(C)oc12` [ASPERPYRONE C], the IC50 in the test on A549 [1] is above 20 µM.
On to `COc1cc(OC)c2c(c1)c(-c1c(OC)cc3cc(O)c4c(=O)cc(C)oc4c3c1OC)c(O)c1c(=O)cc(C)oc12`, for which, in the test with A549 [1], the IC50 was above 20 µM.
As to `O=C1C=C2O[C@H]3CC(=O)c4c(O)cc(O)cc4C3=C2c2cc(O)cc(O)c21`, the IC50 in the test with A549 [1] is above 20 µM.
With `COc1cc(OC)c2c(c1)c(-c1c(O)cc3cc4oc(C)cc(=O)c4c(O)c3c1OC)c(O)c1c(=O)cc(C)oc12`, in the test with A549 [1], the IC50 is above 20 µM.
`COc1cc(OC)c2c(O)c3c(=O)cc(C)oc3cc2c1` [RUBROFUSARIN B]: in the test with A549 [1], the IC50 was above 20 µM.
On the same count and under the same terms, the value for `COc1cc(OC)c2c(O)c3c(=O)cc(C)oc3c(-c3c(OC)cc4cc5oc(C)cc(=O)c5c(O)c4c3OC)c2c1` [AURASPERONE A] was above 20 µM; that for `COc1cc(OC)c2c(O)c3c(=O)cc(C)oc3c(-c3c(OC)cc4cc(O)c5c(=O)cc(C)oc5c4c3OC)c2c1` [FONSECINONE A] was above 20 µM.
